{
  "source": "paper PMC4992173",
  "about": "“Divergent synthesis and identification of the cellular targets of deoxyelephantopins” (Nature Communications, 2016)",
  "key": {"[1]": {"system": "tumour growth and metastasis", "design": "method as in PMID 20105176", "settings": "murine orthotopic breast cancer model, compared with paclitaxel; cited from earlier work"}, "[2]": {"target": "T1, Glyoxylate reductase/hydroxypyruvate reductase (GRHPR) (Homo sapiens, UniProt Q9UBQ7)", "T1 construct": "endogenous in cells; host or cells: MCF7", "T1 sequence (Q9UBQ7 whole entry)": "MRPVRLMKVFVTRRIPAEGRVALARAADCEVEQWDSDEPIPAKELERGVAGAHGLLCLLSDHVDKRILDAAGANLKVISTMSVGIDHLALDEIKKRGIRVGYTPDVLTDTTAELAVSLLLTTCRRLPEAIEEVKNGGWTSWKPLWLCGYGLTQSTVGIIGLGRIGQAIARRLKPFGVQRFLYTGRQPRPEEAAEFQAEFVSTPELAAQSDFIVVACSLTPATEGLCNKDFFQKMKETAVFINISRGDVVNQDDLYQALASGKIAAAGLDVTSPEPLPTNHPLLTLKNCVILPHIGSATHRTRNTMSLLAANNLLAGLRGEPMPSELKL", "test": "SILAC competitive profiling with probe 24c in MCF7 lysates: GRHPR", "format": "binding", "settings": "protein GRHPR, 1 h, then 10 µM 24c", "text": "In our efforts to determine the direct molecular targets of deoxyelephantopin we first performed a gel-based competitive in situ proteomic profiling assay[41] […] While the greater conformational flexibility of probe 24c could potentially lead to more promiscuous target engagement relatively to deoxyelephantopin, it was favoured based on the fact that an alkyne moiety appended to the rigid scaffold of deoxyelephantopin may hinder some of its interactions. MCF7 cells were pretreated with various concentrations of deoxyelephantopin for 4 h, harvested, lysed and the lysates were treated with the fluorogenic probe 24c-Cy3 (10 μM; Supplementary Fig. 10). […] Furthermore, cells were pretreated with 20 μM concentration of deoxyelephantopin or 24c and the proteomic profiles were compared (Fig. 6b, Supplementary Fig. 11). Multiple bands were detected that were equally competed by both DEP and 24c, thus again confirming that 24c can be used as an acceptable clickable analogue of deoxyelephantopin in pulldown assays. Having established the optimal labelling conditions by SDS–PAGE, we next carried out a mass spectrometry-based competitive profiling assay[42] coupled with the method of stable isotope labelling of amino acids in culture (SILAC)[43]. […]\nvisualization were performed as described above. Images were quantified with ImageJ and kinetics values were calculated using GraphPad Prism (V6.03). […]"}},
  "data": [
    {"smiles": "C=C(C)C(=O)O[C@H]1CC2=C[C@@H](C/C(C)=C/[C@H]3OC(=O)C(=C)[C@H]13)OC2=O", "note": "[deoxyelephantopin]", "values": [
      {"measurement": "suppression of tumour growth and metastasis", "setting": "[1]", "value": "more effective than paclitaxel"},
      {"measurement": "SILAC ratio 20 µM Deoxyelephantopin/DMSO with 24c", "setting": "[2]", "value": 0.23}
    ]}
  ]
}
